Legend:
Assay in all cases: relative viability (nuclei count vs DMSO), 5 days (fraction); higher = more cells survive
[1] = compound: CN(C)C[C@@H]1CCn2cc(c3ccccc32)C2=C(C(=O)NC2=O)c2cn(c3ccccc23)CCO1 [Ruboxistaurin] + CS(=O)(=O)N1CCN(Cc2cc3nc(-c4cccc5[nH]ncc45)nc(N4CCOCC4)c3s2)CC1 [Pictilisib] (partner 1 µM)
Summary of the method: (§1)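 Five library-drug doses in √10 steps were combined with a fixed anchor-drug dose, or a single drug was given alone, by pin tool to lung cancer cell lines in 1536-well plates the day after seeding. Nuclei were stained and counted after 5 days. Relative viability is the nuclei count in treated wells over that in vehicle wells, taken as the median of duplicate plates.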

[2] = compound: CN(C)C[C@@H]1CCn2cc(c3ccccc32)C2=C(C(=O)NC2=O)c2cn(c3ccccc23)CCO1 [Ruboxistaurin] + O=C(CCCCCCC(=O)Nc1ccccc1)NO [Vorinostat] (partner 1 µM)
Summary of the method: as §1

[3] = compound: CN(C)C[C@@H]1CCn2cc(c3ccccc32)C2=C(C(=O)NC2=O)c2cn(c3ccccc23)CCO1 [Ruboxistaurin] + Cc1cc(Nc2cc(N3CCN(C)CC3)nc(Sc3ccc(NC(=O)C4CC4)cc3)n2)n[nH]1 [Tozasertib] (partner 0.1 µM)
Summary of the method: as §1

[4] = compound: CN(C)C[C@@H]1CCn2cc(c3ccccc32)C2=C(C(=O)NC2=O)c2cn(c3ccccc23)CCO1 [Ruboxistaurin] + N=C(N)NC(=N)NCCc1ccccc1 [Phenformin] (partner 250 µM)
Summary of the method: as §1

[5] = compound: CN(C)C[C@@H]1CCn2cc(c3ccccc32)C2=C(C(=O)NC2=O)c2cn(c3ccccc23)CCO1 [Ruboxistaurin] + Cc1nc(NC(=O)N2CCC[C@H]2C(N)=O)sc1-c1ccnc(C(C)(C)C(F)(F)F)c1 [Alpelisib] (partner 2 µM)
Summary of the method: as §1

Cell Line	relative viability ([1]; first compound 0.08 µM)	relative viability ([1]; first compound 0.8 µM)	relative viability ([1]; first compound 2.53 µM)	relative viability ([1]; first compound 8 µM)	relative viability ([2]; first compound 0.08 µM)	relative viability ([2]; first compound 0.8 µM)	relative viability ([2]; first compound 2.53 µM)	relative viability ([2]; first compound 8 µM)	relative viability ([3]; first compound 0.08 µM)	relative viability ([3]; first compound 0.8 µM)	relative viability ([3]; first compound 2.53 µM)	relative viability ([3]; first compound 8 µM)	relative viability ([4]; first compound 0.08 µM)	relative viability ([4]; first compound 0.8 µM)	relative viability ([4]; first compound 2.53 µM)	relative viability ([4]; first compound 8 µM)	relative viability ([5]; first compound 0.08 µM)	relative viability ([5]; first compound 0.8 µM)	relative viability ([5]; first compound 2.53 µM)	relative viability ([5]; first compound 8 µM)
NCI-H322M	0.553	0.484	0.432	0.385	0.878	0.753	0.737	0.556	0.49	0.426	0.431	0.346	0.838	0.67	0.656	0.455	0.811	0.74	0.818	0.67
NCI-H358	0.326	0.297	0.3	0.235	0.865	0.659	0.768	0.666	0.116	0.0986	0.118	0.0882	0.32	0.255	0.293	0.263	0.927	0.666	0.75	0.424
NCI-H441	0.475	0.392	0.566	0.356	0.953	0.989	0.787	0.724	0.663	0.594	0.638	0.554	0.942	0.886	0.867	0.862	0.653	0.717	0.845	0.498
NCI-H460	0.378	0.256	0.371	0.325	0.859	0.651	0.711	0.316	0.411	0.257	0.405	0.29	0.535	0.497	0.533	0.485	0.398	0.324	0.26	0.137
NCI-H520	0.324	0.264	0.236	0.208	0.883	0.723	0.735	0.672	0.477	0.456	0.398	0.456	0.766	0.54	0.599	0.393	0.976	0.789	1.01	0.822
NCI-H596	0.472	0.352	0.374	0.346	0.817	0.428	0.578	0.576	0.932	0.8	0.729	0.889	0.844	0.77	0.841	0.722	0.494	0.461	0.502	0.414
NCI-H647	0.53	0.37	0.417	0.258	0.673	0.447	0.725	0.719	0.199	0.272	0.369	0.172	0.656	0.483	0.599	0.409	1.2	0.995	1.06	0.899
NCI-H650	1.15	0.831	0.848	0.808	0.456	0.383	0.454	0.717	0.81	0.685	0.82	0.863	0.51	0.452	0.488	0.464	1.17	0.888	1.12	1.12
NCI-H661	0.463	0.499	0.493	0.422	0.869	0.773	0.781	0.94	0.366	0.332	0.372	0.344	0.253	0.268	0.297	0.29	0.982	0.696	0.902	0.567
NCI-H727	0.563	0.244	0.433	0.284	1.1	1.14	1.13	1.28	0.69	0.463	0.579	0.536	0.565		0.401	0.474	0.543	0.485	0.527	0.368
NCI-H838	0.468	0.376	0.371	0.383	0.813	0.665	0.742	0.734	0.28	0.246	0.287	0.292	0.628	0.467	0.592	0.454	1.13	0.903	0.966	0.852
NCI-H1355	0.473	0.364	0.309	0.276	0.693	0.604	0.62	0.583	0.529	0.485	0.484	0.38	0.472	0.39	0.468	0.451	0.868	0.68	0.827	0.667
NCI-H1395	0.635	0.611	0.713	0.518	0.813	0.739	0.707	0.688	0.774	0.709	0.79	0.7	0.502	0.415	0.525	0.498	1.06	0.944	1.12	0.931
NCI-H1437	0.488	0.388	0.383	0.305	0.834	0.724	0.825	0.798	0.434	0.365	0.378	0.417	0.328	0.278	0.298	0.322	1.12	0.868	1.03	1.02
NCI-H1651	0.63	0.531	0.502	0.624	0.54	0.573	0.611	0.499	0.922	0.639	0.8	0.521	0.342	0.312	0.332	0.319	1.04	0.755	0.974	0.797
